Test results taken from US11059795B2, “Androgen receptor modulators and methods for their use” (ESSA Pharma, Inc., priority 2018, dated 2021).
pIC50: −log10 of the molar value.

What was measured:
[1] = Microsomal stability assay, human liver microsomes; type: in vitro ADME; settings: pH 7.4, 1 μM compound, 0.5 mg/mL protein, 37° C., read-out: HLM +/− NADPH: Clint (μL/min/mg protein)
Method: Microsomal stability assay is a widely used in vitro model to characterize the metabolic conversion by phase I enzymes, such as cytochrome P450 (CYP) enzymes. Since metabolism is known to be highly variable in different species, microsomal stability assay is commonly run in multiple species. Metabolic stability of testing compound can be evaluated using human, rat, mouse, or other animal liver or intestine microsomes to predict intrinsic clearance.
The assay was carried out in 96-well microtiter plates at 37° C. Reaction mixtures (25 μL) contained a final concentration of 1 μM test compound, 0.5 mg/mL liver microsomes protein, and 1 mM NADPH and/or 1 mM UDPGA (with alamethicin) in 100 mM potassium phosphate, pH 7.4 buffer with 3 mM MgCl2. The incubation was done with N=1, but duplicate incubation at each time point can be prepared if necessary. At each of the time points (for example, 0, 15, 30, and 60 minutes), 150 μL of quench solution (100% acetonitrile with 0.1% formic acid) with internal standard was transferred to each well. Besides the zero minute controls, mixtures containing the same components except the NADPH can also be prepared as the negative control. Verapamil was included as a positive control to verify assay performance. Plates were sealed, vortexed, and centrifuged at 4° C. for 15 minutes at 4000 rpm. The supernatant is transferred to fresh plates for LC/MS/MS analysis.
Summarized conditions: [Compound]=[…], [LM]=0.5 mg/mL, [NADPH]=1 mM and/or [UDPGA]=1 mM, Buffer=100 mM Potassium Phosphate, pH 7.4 with 3 mM MgCl2, Time=0, 15, 30, and 60 min, and Temperature=37° C.
All samples were analyzed on LC/MS/MS using an AB Sciex API 4000 instrument, coupled to a Shimadzu LC-20AD LC Pump system. Analytical samples were separated using a Waters Atlantis T3 dC18 reverse phase HPLC column (20 mm×2.1 mm) at a flow rate of 0.5 mL/min. The mobile phase consisted of 0.1% formic acid in water (solvent A) and 0.1% formic acid in 100% acetonitrile (solvent B).
The extent of metabolism is calculated as the disappearance of the test compound, compared to the 0-min time incubation. Initial rates are calculated for the compound concentration and used to determine half-life (t½) values and subsequently, the intrinsic clearance (Clint). Clint=(0.693)(1/t½ (min))(g of liver/kg of body weight)(mL incubation/mg of microsomal protein)(45 mg of microsomal protein/g of liver weight)

androgen receptor (AR) = molecular target: T1, androgen receptor (AR) (Homo sapiens, UniProt P10275, T878A); test: Androgen-induced PSA (6.1 kb)-luciferase reporter assay in LNCaP cells; type: cell-based; settings: LNCaP cells transfected with PSA (6.1 kb)-luciferase reporter, R1881 1 nM, 24 h; read-out: PSA-Luc IC50 Range
T1 construct: LNCaP cells were transiently transfected with the PSA (6.1 kb)-luciferase reporter for 24 h; endogenous in cells; host or cells: LNCaP
T1 sequence (P10275 1-920 T878A): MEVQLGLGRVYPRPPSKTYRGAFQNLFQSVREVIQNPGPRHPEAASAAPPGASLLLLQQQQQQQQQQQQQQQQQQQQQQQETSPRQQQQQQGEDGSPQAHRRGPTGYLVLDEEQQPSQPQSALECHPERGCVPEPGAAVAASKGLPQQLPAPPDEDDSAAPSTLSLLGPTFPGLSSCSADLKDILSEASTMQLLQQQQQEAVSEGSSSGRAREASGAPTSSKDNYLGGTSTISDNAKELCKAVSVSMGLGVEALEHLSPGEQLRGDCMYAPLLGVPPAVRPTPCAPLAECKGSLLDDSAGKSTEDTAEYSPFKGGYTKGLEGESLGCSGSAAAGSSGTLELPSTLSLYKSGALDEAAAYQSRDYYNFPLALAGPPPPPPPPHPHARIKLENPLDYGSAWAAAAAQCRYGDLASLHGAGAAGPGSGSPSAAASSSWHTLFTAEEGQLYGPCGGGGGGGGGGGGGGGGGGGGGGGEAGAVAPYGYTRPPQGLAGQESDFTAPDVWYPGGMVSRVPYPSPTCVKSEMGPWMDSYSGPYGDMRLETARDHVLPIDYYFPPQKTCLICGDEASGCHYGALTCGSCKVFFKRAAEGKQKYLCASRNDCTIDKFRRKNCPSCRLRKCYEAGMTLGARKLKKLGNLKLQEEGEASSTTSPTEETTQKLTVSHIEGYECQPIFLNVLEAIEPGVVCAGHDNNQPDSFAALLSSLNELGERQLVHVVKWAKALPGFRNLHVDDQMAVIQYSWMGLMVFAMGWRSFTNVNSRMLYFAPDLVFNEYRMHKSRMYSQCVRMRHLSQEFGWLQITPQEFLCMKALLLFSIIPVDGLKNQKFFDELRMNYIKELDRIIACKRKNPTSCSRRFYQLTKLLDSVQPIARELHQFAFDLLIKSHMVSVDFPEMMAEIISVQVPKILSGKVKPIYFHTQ
Method: The PSA (6.1 kb)-luciferase reporter contains functional AREs (androgen response elements) to which AR binds in response to androgen to induce luciferase activity.
Cells were lysed using Passive Lysis Buffer (Promega) and then collected into V-bottom 96-well tissue culture plates. Lysates were centrifuged at 4° C. for 5 minutes at 3000 rpm. To measure luminescence of LNCaP cell lysates the Firefly Luciferase Assay System (Promega) was employed, according to manufacturer's protocol. Relative luminescence units (RLU) in cell lysates were detected for 10 seconds using Promega GloMax-Multi Detection Luminometer (Promega). Values were normalized to protein content. GraphPad Prism graphing software was used to calculate IC50 values.
Comparisons between treatment and control groups were compared using Two-Way ANOVA with post-hoc Dunnett's and Tukey's tests. Differences were considered statistically significant at P values less than 0.05.

Row | SMILES | microsomal CLint at 1 μM [1] [µL/min/mg] | pIC50 (androgen receptor (AR))
1 | CC(C)(c1ccc(OCc2cn(S(C)(=O)=O)cn2)cc1)c1cc(Cl)c(OCCCCl)c(Cl)c1 [Compound A5, 4-((4-(2-(3,5-dichloro-4-(3-chloropropoxy)phenyl)propan-2-yl)phenoxy)methyl)-1-(methylsulfonyl)-1H-imidazole] | < 12 | 5.70 to 6.30
2 | CC(C)(c1ccc(OCc2nnc(S(C)(=O)=O)o2)cc1)c1cc(Cl)c(OCCCCl)c(Cl)c1 [Compound A7, 2-((4-(2-(3,5-dichloro-4-(3-chloropropoxy)phenyl)propan-2-yl)phenoxy)methyl)-5-(methylsulfonyl)-1,3,4-oxadiazole] | ≥ 48 | < 5.70
3 | CSc1nnc(COc2ccc(C(C)(C)c3cc(Cl)c(OCCCCl)c(Cl)c3)cc2)o1 [Compound A17] | < 12 | 5.70 to 6.30
4 | CC(C)(c1ccc(OCc2nnc(O)o2)cc1)c1cc(Cl)c(OCCCCl)c(Cl)c1 [Compound A18] | ≥ 48 | < 5.70
5 | CC(C)(c1ccc(-c2coc(CNS(C)(=O)=O)n2)cc1)c1cc(Cl)c(OCCCCl)c(Cl)c1 [Compound A21] | < 12 | 
6 | CC(C)(c1ccc(-c2cc(CNS(C)(=O)=O)on2)cc1)c1cc(Cl)c(OCCCCl)c(Cl)c1 [Compound A22, N-((3-(4-(2-(3,5-dichloro-4-(3-chloropropoxy)phenyl)propan-2-yl)phenyl) Isoxazol-5-yl)methyl)methanesulfonamide] | < 12 | < 5.70
7 | CC(=O)Nc1cc(COc2ccc(C(C)(C)c3cc(Cl)c(OCCCCl)c(Cl)c3)cc2)on1 [Compound A23] | 12 to 48 | < 5.70
8 | CC(C)(c1ccc(-n2cnc(CNS(C)(=O)=O)c2)cc1)c1cc(Cl)c(OCCCl)c(Cl)c1 [Compound A24] | < 12 | 5.70 to 6.30
9 | CC(C)(c1ccc(-c2c[nH]c(CNS(C)(=O)=O)n2)cc1)c1cc(Cl)c(OCCCCl)c(Cl)c1 [Compound A25] | < 12 | < 5.70
10 | CC(C)(C)N(c1ccc(OCc2ocnc2S(C)(=O)=O)cc1)c1cc(Cl)c(OCCCl)c(Cl)c1 [Compound A31, N-tert-Butyl-3,5-dichloro-4-(2-chloroethoxy)-N-[4-[(4-methylsulfonyloxazol-5-yl)-methoxy]-phenyl]aniline] | 12 to 48 | > 6.30
11 | CC(C)(c1ccc(OCc2[nH]ncc2NS(C)(=O)=O)cc1)c1cc(Cl)c(OCCCl)c(Cl)c1 [Compound A40, N-[3-[[4-[1-[3,5-Dichloro-4-(2-chloroethoxy)phenyl]-1-methyl-ethyl]phenoxy]methyl]-1H-pyrazol-4-yl]methanesulfonamide] | 12 to 48 | 5.70 to 6.30
12 | CC(C)(c1ccc(OCc2ncncc2NS(C)(=O)=O)cc1)c1cc(Cl)c(OCCCl)c(Cl)c1 [Compound A41, N-(4-((4-(2-(3,5-Dichloro-4-(2-chloroethoxy)phenyl)propan-2-yl)phenoxy)methyl)pyrimidin-5-yl)methanesulfonamide] | ≥ 48 | < 5.70
13 | CC(C)(c1ccc(OCc2ocnc2S(C)(=O)=O)cc1)c1cc(Cl)c(NCCCl)c(Cl)c1 [Compound A50] | 12 to 48 | 5.70 to 6.30
14 | CCOc1c(Cl)cc(C(C)(C)c2ccc(OCc3ocnc3S(C)(=O)=O)cc2)cc1Cl [Compound A52] | < 12 | < 5.70
15 | CC(C)(c1ccc(OCc2ocnc2S(C)(=O)=O)cc1)c1cc(Cl)c(OCCN)c(Cl)c1 [Compound A53] | < 12 | < 5.70
16 | CC(C)(c1ccc(OCc2ocnc2S(C)(=O)=O)cc1)c1cc(Cl)c(OCCC(F)(F)F)c(Cl)c1 [Compound A54, 5-((4-(2-(3,5-Dichloro-4-(3,3,3-trifluoropropoxy)phenyl)propan-2-yl)phenoxy)methyl)-4-(methylsulfonyl)oxazole] | < 12 | 5.70 to 6.30
17 | COc1c(Cl)cc(C(C)(C)c2ccc(OCc3ocnc3S(C)(=O)=O)cc2)cc1Cl [Compound A56] | < 12 | 5.70 to 6.30
18 | CC(C)(c1ccc(OCc2ocnc2S(C)(=O)=O)cc1)c1cnc(NCCCl)nc1 [Compound A58] | 12 to 48 | < 5.70
19 | CC(C)(c1ccc(OCCCl)c(Cl)c1)c1ccc(OCc2ocnc2S(C)(=O)=O)c(C#N)c1 [Compound A62] | < 12 | < 5.70
20 | CC(C)(c1ccc(OCCCl)c(C#N)c1)c1ccc(OCc2ocnc2S(C)(=O)=O)c(C#N)c1 [Compound A63, 2-(2-chloroethoxy)-5-(2-(3-cyano-4-((4-(methylsulfonyl)oxazol-5-yl)methoxy)phenyl)propan-2-yl)benzonitrile] | 12 to 48 | 5.70 to 6.30
21 | Cc1nc(-c2ccc(C(C)(C)c3cc(Cl)c(OCCCCl)c(Cl)c3)cc2)co1 [Compound A64] | ≥ 48 | < 5.70
22 | CC(C)(c1ccc(Nc2ncc(CNS(C)(=O)=O)o2)cc1)c1cc(Cl)c(OCCCl)c(Cl)c1 [Compound A75, N-((2-((4-(2-(3,5-Dichloro-4-(2-chloroethoxy)phenyl)propan-2-yl)phenyl)amino)oxazol-5-yl)methyl)methanesulfonamide] | < 12 | 5.70 to 6.30
23 | CC(C)(c1cc(Cl)c(OCCCl)c(Cl)c1)c1ccc(OCc2ocnc2S(C)(=O)=O)c(C(N)=O)c1 [Compound A76] | < 12 | 5.70 to 6.30
24 | CC(C)(c1ccc(OCc2n[nH]cc2NS(=O)(=O)C(F)(F)F)cc1)c1cc(Cl)c(OCCCl)c(Cl)c1 [Compound A106] | 12 to 48 | > 6.30
25 | CC(C)(c1ccc(OCc2noc(S(C)(=O)=O)n2)cc1)c1cc(Cl)c(OCCCl)c(C#N)c1 [Compound A151] |  | 5.70 to 6.30
26 | CC(C)(c1ccc(OCc2nc(NS(C)(=O)=O)nc3c2CCNC3)cc1)c1cc(Cl)c(OCCCl)c(C#N)c1 [Compound A191] |  | 5.70 to 6.30
27 | CC(C)(c1ccc(OC2CCc3cnc(NS(C)(=O)=O)nc32)cc1)c1cc(Cl)c(OCCCl)c(C#N)c1 (stereo not drawn) [Compound A203] |  | 5.70 to 6.30
28 | CC(C)(c1ccc(OCc2ccnc(NS(C)(=O)=O)n2)cc1)c1cc(F)c(OCCCl)c(C#N)c1 [Compound A205] |  | 5.70 to 6.30
